Source: patent US7678557B2, “Methods for the accumulation and retention of immune-enhancing, bacterial-derived ribonucleotides (ORN) in bacteria” (priority 1993, dated 2010)

Test system: L. monocytogenes
Experiment: Disk diffusion assay of antibiotic susceptibility before and after 6 serial washes in PBS (Example 9)
Type: cell-based
Conditions: disk content per antimicrobial, average of 6 experiments (SD)
Description: The disk diffusion assay was used to determine the susceptibility of vegetative forms of L. monocytogenes, before and after 6 serial 20-min washes in PBS. (See Bauer, A, Kirby, W, Sherris, J, Turck, M, 1966 Antibiotic Susceptibility Testing by a Standardize Single Disk Method, Amer J Clin Path 36:41-44).
Data are averages of 6 experiments. SD is in parentheses.

[1] = After 6 Washes (20 min each in PBS), L. monocytogenes
[2] = Before Washing, vegetative L. monocytogenes

Row | Molecule | Diameter of Zone of Inhibition [1] | Diameter of Zone of Inhibition [2]
1 | CC1(C)S[C@@H]2[C@H](NC(=O)[C@H](N)c3ccccc3)C(=O)N2[C@H]1C(=O)O [Ampicillin] | 30 mm (3.6) | 32 mm (3.8)
2 | NC[C@H]1O[C@H](O[C@H]2[C@H](O)[C@@H](O[C@H]3O[C@H](CO)[C@@H](O)[C@H](N)[C@H]3O)[C@H](N)C[C@@H]2N)[C@H](O)[C@@H](O)[C@@H]1O [Kanamycin] | – | 11 (2.66) mm
3 | CN(C)[C@@H]1C(O)=C(C(N)=O)C(=O)[C@@]2(O)C(O)=C3C(=O)c4c(O)cccc4[C@@](C)(O)[C@H]3C[C@@H]12 [Tetracycline] | 45 (6.3) mm | 40 (5.0) mm
4 | CN[C@H](CC(C)C)C(=O)N[C@H]1C(=O)N[C@@H](CC(N)=O)C(=O)N[C@H]2C(=O)N[C@H]3C(=O)N[C@H](C(=O)N[C@H](C(=O)O)c4cc(O)cc(O)c4-c4cc3ccc4O)[C@H](O)c3ccc(c(Cl)c3)Oc3cc2cc(c3O[C@@H]2O[C@H](CO)[C@@H](O)[C@H](O)[C@H]2O[C@H]2C[C@](C)(N)[C@H](O)[C@H](C)O2)Oc2ccc(cc2Cl)[C@H]1O [Vancomycin] | 30 (4.2) mm | 25 (3.7) mm
5 | Polymixin B | – | 0 mm
